SMILES strings stand for the structures. Converted amounts (≈) assume the structure as drawn.

In data set [1] the target is T1, glucocerebrosidase (Gcase) (Homo sapiens, UniProt P04062).
T1 construct: micellar solution containing 10 nM GCase and 100 nM saposin C
T1 sequence (P04062 40-536): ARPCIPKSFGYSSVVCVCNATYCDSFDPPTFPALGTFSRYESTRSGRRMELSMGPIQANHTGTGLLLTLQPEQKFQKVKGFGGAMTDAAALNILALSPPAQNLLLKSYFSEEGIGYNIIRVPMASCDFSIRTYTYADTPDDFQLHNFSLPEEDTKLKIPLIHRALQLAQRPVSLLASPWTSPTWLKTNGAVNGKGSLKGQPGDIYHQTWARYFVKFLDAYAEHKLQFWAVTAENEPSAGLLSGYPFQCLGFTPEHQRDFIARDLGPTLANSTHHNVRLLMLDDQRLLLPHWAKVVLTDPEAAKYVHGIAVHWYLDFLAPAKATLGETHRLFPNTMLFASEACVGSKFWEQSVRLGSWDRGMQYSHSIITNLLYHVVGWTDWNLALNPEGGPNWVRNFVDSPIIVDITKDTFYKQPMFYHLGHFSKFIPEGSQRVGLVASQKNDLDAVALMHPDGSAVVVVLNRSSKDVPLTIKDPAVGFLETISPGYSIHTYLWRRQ
Kind of data set: Glucocerebrosidase (Gcase) activation assay, 4-methylumbelliferyl-beta-D-glucopyranoside substrate, fluorescence readout. The class given is biochemical. The conditions noted are these: for activation at 0.1 µM / Percent Gcase Activation, 0.1 μM Test Compound: test compound at 0.1 μM; for activation at 0.1 µM: read-out: Percent Gcase Activation, 0.1 μM Test Compound; for activation at 1 µM / Percent Gcase Activation, 1 μM Test Compound: test compound at 1.0 μM; for activation at 1 µM: read-out: Percent Gcase Activation, 1 μM Test Compound. The method in brief:
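10 nM GCase with 100 nM saposin C pre-incubated 30 min with compound in pH 4.7 phosphate/citrate PS/triton micelles, then mixed 1:1 with 2 mM 4-methylumbelliferyl-β-glucoside micellar substrate (stock level). Run 15 min at room temperature, stopped at pH 12.5; fluorescence 365/440 nm. Screened at 1.0 and 0.1 μM; 8-point curves from 5 μM.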

The nature of data set [2]: Compound solubility in water. The note with it: water; for solubility: Compound Solubility in Water.

In the case of `Cc1cc(C)n2ccc(C(=O)NC3(C)CCOc4ccc(F)c(F)c43)c2n1` (centres unmarked) [III-173], in data set [1], the activation at 0.1 µM was in the range of 10 to 20% and the activation at 1 µM was greater than 60%. In addition, the solubility – broadly, the dissolved amount per volume that the medium holds – in data set [2] turned out to be 0.06 µg/mL (≈ 0.162 µM).
Consider `Cc1cc(C)n2ccc(C(=O)NC3(C)CCOc4cc(F)c(F)cc43)c2n1` (centres unmarked) [III-174], for which, in data set [1], the activation at 0.1 µM is greater than 20% and the activation at 1 µM is greater than 60%. In addition, the solubility in data set [2] came to 3.8 µg/mL (≈ 10.2 µM).
For the compound `CCCCCOC1CCC(NC(=O)c2ccn3c(C)cc(C)nc23)C1` (centres unmarked) [III-176], in data set [1], the activation at 0.1 µM was 10 to 20% and the activation at 1 µM is greater than 60%. The “Compound Solubility in Water” value in data set [2] came out at 4.6 µg/mL.
Turning to `CCCCCOC1CCC(NC(=O)c2ccn3c(C)cc(C)nc23)C1` (centres unmarked) [III-177], in data set [1], the “Percent Gcase Activation, 0.1 μM Test Compound” value was “*** (greater than 20% Gcase activation)” and the “Percent Gcase Activation, 1 μM Test Compound” value is reported as “+++ (Gcase activation greater than 60%)”. Further, the “Compound Solubility in Water” value in data set [2] stood at 17.2 µg/mL.
Take `CCCCCO[C@H]1CC[C@H](NC(=O)c2ccn3c(C)cc(C)nc23)C1` [III-178]: in data set [1], the activation at 0.1 µM is greater than 20% and the activation at 1 µM was greater than 60%. Besides, the solubility in data set [2] was 9.2 µg/mL (≈ 26.8 µM).
The like results for `CCCCCO[C@H]1CC[C@@H](NC(=O)c2ccn3c(C)cc(C)nc23)C1` [III-179] were, in that order, less than 10%, greater than 60% and 12.3 µg/mL (≈ 35.8 µM).
With `CCCCCO[C@@H]1CC[C@H](NC(=O)c2ccn3c(C)cc(C)nc23)C1` [III-180], in data set [1], the “Percent Gcase Activation, 0.1 μM Test Compound” value is given as “* (less than 10% Gcase activation)” and the “Percent Gcase Activation, 1 μM Test Compound” value is “+++ (Gcase activation greater than 60%)”. In data set [2], the “Compound Solubility in Water” value was 10.4 µg/mL.
Take `Cc1cc(C)n2ccc(C(=O)NC3(C)CCOc4ccccc43)c2n1` (centres unmarked) [III-181]: in data set [1], the activation at 0.1 µM was greater than 20% and the activation at 1 µM was greater than 60%. The concentration in solution in data set [2] (solubility) was 1.8 µg/mL (≈ 5.37 µM).
Turning to `CCCCO[C@H]1CC2CCC(C1)[C@H]2NC(=O)c1ccn2c(C)cc(C)nc12` [III-182], in data set [1], the activation at 0.1 µM was greater than 20% and the activation at 1 µM was greater than 60%. This compound also gave a solubility in data set [2] of 0.6 µg/mL (≈ 1.62 µM).
For the compound `C#Cc1ccc(NC(=O)c2ccn3c(C)cc(C)nc23)c(OCCOC)c1` [III-183], in data set [1], the activation at 0.1 µM was greater than 20% and the activation at 1 µM was greater than 60%. This compound yielded a solubility in data set [2] of 0.04 µg/mL (≈ 0.11 µM).
Turning to `Cc1cc(C)n2ccc(C(=O)NC3CCCCC34CCOCC4)c2n1` (centres unmarked) [III-184], in data set [1], the activation at 0.1 µM was in the range of 10 to 20% and the activation at 1 µM is greater than 60%. In addition, the solubility in data set [2] was 19.5 µg/mL (≈ 57.1 µM).
The like results for `CCCCO[C@H]1C2CCC1C[C@@H](NC(=O)c1ccn3c(C)cc(C)nc13)C2` [III-185] were, in that order, greater than 20%, greater than 60% and 3.1 µg/mL (≈ 8.39 µM).
The corresponding values for `Cc1cc(C)n2ccc(C(=O)NC3CC=C(c4cccs4)CC3)c2n1` (centres unmarked) [III-186] are greater than 20%, greater than 60% and 0.2 µg/mL (≈ 0.569 µM).
As to `Cc1cc(C)n2ccc(C(=O)NC3CCC(c4cccs4)CC3)c2n1` (centres unmarked) [III-187], in data set [1], the activation at 0.1 µM was greater than 20% and the activation at 1 µM is greater than 60%. The “Compound Solubility in Water” value in data set [2] stood at 0.4 µg/mL.
For the compound `Cc1cc(C)n2ccc(C(=O)NC3CCC(c4cccs4)CC3)c2n1` (centres unmarked) [III-188], in data set [1], the “Percent Gcase Activation, 0.1 μM Test Compound” value is “*** (greater than 20% Gcase activation)” and the “Percent Gcase Activation, 1 μM Test Compound” value was “+++ (Gcase activation greater than 60%)”. For the same compound, in data set [2], the “Compound Solubility in Water” value was 1.0 µg/mL.
As to `Cc1cc(C)n2ccc(C(=O)N[C@H]3CC[C@@H](Oc4cccs4)CC3)c2n1` [III-189], in data set [1], the activation at 0.1 µM was greater than 20% and the activation at 1 µM is greater than 60%. In addition, in data set [2], the concentration in solution (solubility) was 1 µg/mL (≈ 2.71 µM).
The like results for `Cc1cc(C)n2ccc(C(=O)N[C@H]3CC[C@H](Oc4cccs4)CC3)c2n1` [III-190] were, in that order, 10 to 20%, greater than 60% and 4.2 µg/mL (≈ 11.4 µM).
With `Cc1cc(C)n2ccc(C(=O)NC3Cc4ccc(-c5cscn5)cc4C3)c2n1` (centres unmarked) [III-192], in data set [1], the activation at 0.1 µM is greater than 20% and the activation at 1 µM is greater than 60%. Moreover, the solubility in data set [2] came out at 0.01 µg/mL (≈ 0.0257 µM).
The corresponding values for `Cc1cc(C)n2ccc(C(=O)NC3CCCc4cccnc43)c2n1` (centres unmarked) [III-193] are less than 10%, less than 30% and 27.2 µg/mL (≈ 84.9 µM).
In the case of `C#CCCCO[C@H]1CC[C@H](NC(=O)c2ccn3c(C)cc(C)nc23)CC1` [III-194], in data set [1], the activation at 0.1 µM is 10 to 20% and the activation at 1 µM is greater than 60%. Also, the solubility in data set [2] turned out to be 4.5 µg/mL (≈ 12.7 µM).
For the compound `Cc1cc(C)n2ccc(C(=O)NC3CCOc4cccc(F)c43)c2n1` (centres unmarked) [III-195], in data set [1], the activation at 0.1 µM was greater than 20% and the activation at 1 µM is greater than 60%. This compound yielded a solubility in data set [2] of 7 µg/mL (≈ 20.6 µM).
For the compound `Cc1cc(C)n2ccc(C(=O)NC3CCOc4cc(F)ccc43)c2n1` (centres unmarked) [III-196], in data set [1], the activation at 0.1 µM was 10 to 20% and the activation at 1 µM is greater than 60%. For the same compound, the solubility in data set [2] was found to be 4.2 µg/mL (≈ 12.4 µM).
As to `CCCOCCO[C@H]1CC[C@H](NC(=O)c2ccn3c(C)cc(C)nc23)CC1` [III-197], in data set [1], the activation at 0.1 µM is less than 10% and the activation at 1 µM is 30 to 60%. The same compound gave a solubility in data set [2] of 16.9 µg/mL (≈ 45.2 µM).
Consider `CCCCO[C@H]1C[C@H](NC(=O)c2ccn3c(C)cc(C)nc23)C1` [III-198], for which, in data set [1], the activation at 0.1 µM lay within 10 to 20% and the activation at 1 µM is greater than 60%. The same compound came in with a solubility in data set [2] of 13.1 µg/mL (≈ 41.5 µM).
The like results for `Cc1cc(C)n2ccc(C(=O)NC3CCC(C4CCCO4)CC3)c2n1` (centres unmarked) [III-199] were, in that order, less than 10%, 30 to 60% and 12.3 µg/mL (≈ 36 µM).
Take `Cc1cc(C)n2ccc(C(=O)NC3CCC(C4CCCO4)CC3)c2n1` (centres unmarked) [III-200]: the “Percent Gcase Activation, 0.1 μM Test Compound” value in data set [1] was “* (less than 10% Gcase activation)”. Moreover, the “Compound Solubility in Water” value in data set [2] was 12.4 µg/mL.
Consider `CCCCCO[C@H]1CC[C@H](NC(=O)c2ccn3c(C)cc(C)nc23)CC1` [III-201], for which, in data set [1], the activation at 0.1 µM is greater than 20% and the activation at 1 µM was greater than 60%. Besides, the concentration in solution in data set [2] (solubility) was 0.5 µg/mL (≈ 1.4 µM).
In the case of `CCCCCO[C@H]1CC[C@@H](NC(=O)c2ccn3c(C)cc(C)nc23)CC1` [III-202], in data set [1], the activation at 0.1 µM is greater than 20% and the activation at 1 µM was greater than 60%. The compound further showed a solubility in data set [2] (in water) of 3.6 µg/mL (≈ 10.1 µM).
The like results for `CCCCCN(C)C(=O)[C@H]1CC[C@H](NC(=O)c2ccn3c(C)cc(C)nc23)CC1` [III-203] were, in that order, less than 10%, 30 to 60% and 17 µg/mL (≈ 42.7 µM).
The corresponding values for `CCC(F)(F)CN1CCC(NC(=O)c2ccn3c(C)cc(C)nc23)CC1` [III-204] are less than 10%, less than 30% and 21.1 µg/mL (≈ 57.9 µM).
The corresponding values for `CCC(F)(F)CN1CCC(NC(=O)c2ccn3c(C)cc(C)nc23)C1` (centres unmarked) [III-205] are less than 10%, less than 30% and 21.3 µg/mL (≈ 60.8 µM).
`Cc1cc(C)n2ccc(C(=O)N[C@H]3CC[C@H](Oc4cccnc4)CC3)c2n1` [III-206]: in data set [1], the activation at 0.1 µM is less than 10% and the activation at 1 µM is less than 30%. In data set [2] (in water), the solubility amounted to 4.1 µg/mL (≈ 11.2 µM).
The like results for `Cc1cc(C)n2ccc(C(=O)NC3CCOc4ccc(-c5ncco5)cc43)c2n1` (centres unmarked) [III-207] were, in that order, less than 10%, 30 to 60% and 1 µg/mL (≈ 2.57 µM).

The record behind these values is patent publication US11351173B2, “Substituted pyrrolo[1,2-a]pyrimidines and their use in the treatment of medical disorders” (Bial—R&D Investments, S.A., priority 2014, dated 2022).
